Results on one molecule are retold here after ChEMBL document CHEMBL3108683, “An Accessible Chiral Linker to Enhance Potency and Selectivity of Neuronal Nitric Oxide Synthase Inhibitors” (ACS Med Chem Lett, 2014).

Assay [1] deals with T1, Nitric oxide synthase, inducible (Mus musculus, UniProt P29477).
T1 sequence (P29477 whole entry): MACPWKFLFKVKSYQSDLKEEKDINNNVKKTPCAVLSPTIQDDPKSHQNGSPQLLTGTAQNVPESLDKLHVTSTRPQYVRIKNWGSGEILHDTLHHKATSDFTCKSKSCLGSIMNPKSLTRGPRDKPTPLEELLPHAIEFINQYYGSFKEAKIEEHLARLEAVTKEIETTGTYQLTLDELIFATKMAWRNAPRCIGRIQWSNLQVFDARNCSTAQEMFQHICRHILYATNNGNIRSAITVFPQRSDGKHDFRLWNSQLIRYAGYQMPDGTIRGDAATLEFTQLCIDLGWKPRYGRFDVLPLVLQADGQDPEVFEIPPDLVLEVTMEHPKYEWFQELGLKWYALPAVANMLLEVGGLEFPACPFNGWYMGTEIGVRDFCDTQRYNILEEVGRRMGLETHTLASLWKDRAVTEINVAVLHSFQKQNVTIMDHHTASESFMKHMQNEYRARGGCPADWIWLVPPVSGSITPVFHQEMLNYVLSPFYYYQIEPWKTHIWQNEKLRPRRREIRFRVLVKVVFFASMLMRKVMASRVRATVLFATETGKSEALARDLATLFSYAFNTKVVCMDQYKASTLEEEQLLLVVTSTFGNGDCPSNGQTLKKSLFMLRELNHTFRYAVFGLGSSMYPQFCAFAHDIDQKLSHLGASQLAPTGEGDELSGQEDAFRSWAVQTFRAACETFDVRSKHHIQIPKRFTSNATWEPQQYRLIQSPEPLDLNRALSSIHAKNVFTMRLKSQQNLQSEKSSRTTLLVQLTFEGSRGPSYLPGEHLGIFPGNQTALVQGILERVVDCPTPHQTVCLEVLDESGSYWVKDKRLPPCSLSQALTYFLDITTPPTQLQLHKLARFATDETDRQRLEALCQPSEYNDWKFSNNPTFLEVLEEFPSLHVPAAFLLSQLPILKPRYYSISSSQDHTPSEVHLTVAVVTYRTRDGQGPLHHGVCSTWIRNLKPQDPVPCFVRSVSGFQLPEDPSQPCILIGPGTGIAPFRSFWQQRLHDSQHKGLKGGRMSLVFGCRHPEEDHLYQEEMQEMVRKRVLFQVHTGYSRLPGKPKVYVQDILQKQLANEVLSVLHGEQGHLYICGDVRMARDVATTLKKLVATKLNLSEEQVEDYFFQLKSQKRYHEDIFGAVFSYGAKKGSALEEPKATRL
Kind of assay: Inhibition of mouse recombinant iNOS overexpressed in Escherichia coli using L-arginine as substrate assessed as formation of NO-hemoglobin complex measured up to 180 seconds by hemoglobin capture assay.

Assay [2] has as its target T2, Nitric oxide synthase 3 (Bos taurus, UniProt P29473).
T2 sequence (P29473 whole entry): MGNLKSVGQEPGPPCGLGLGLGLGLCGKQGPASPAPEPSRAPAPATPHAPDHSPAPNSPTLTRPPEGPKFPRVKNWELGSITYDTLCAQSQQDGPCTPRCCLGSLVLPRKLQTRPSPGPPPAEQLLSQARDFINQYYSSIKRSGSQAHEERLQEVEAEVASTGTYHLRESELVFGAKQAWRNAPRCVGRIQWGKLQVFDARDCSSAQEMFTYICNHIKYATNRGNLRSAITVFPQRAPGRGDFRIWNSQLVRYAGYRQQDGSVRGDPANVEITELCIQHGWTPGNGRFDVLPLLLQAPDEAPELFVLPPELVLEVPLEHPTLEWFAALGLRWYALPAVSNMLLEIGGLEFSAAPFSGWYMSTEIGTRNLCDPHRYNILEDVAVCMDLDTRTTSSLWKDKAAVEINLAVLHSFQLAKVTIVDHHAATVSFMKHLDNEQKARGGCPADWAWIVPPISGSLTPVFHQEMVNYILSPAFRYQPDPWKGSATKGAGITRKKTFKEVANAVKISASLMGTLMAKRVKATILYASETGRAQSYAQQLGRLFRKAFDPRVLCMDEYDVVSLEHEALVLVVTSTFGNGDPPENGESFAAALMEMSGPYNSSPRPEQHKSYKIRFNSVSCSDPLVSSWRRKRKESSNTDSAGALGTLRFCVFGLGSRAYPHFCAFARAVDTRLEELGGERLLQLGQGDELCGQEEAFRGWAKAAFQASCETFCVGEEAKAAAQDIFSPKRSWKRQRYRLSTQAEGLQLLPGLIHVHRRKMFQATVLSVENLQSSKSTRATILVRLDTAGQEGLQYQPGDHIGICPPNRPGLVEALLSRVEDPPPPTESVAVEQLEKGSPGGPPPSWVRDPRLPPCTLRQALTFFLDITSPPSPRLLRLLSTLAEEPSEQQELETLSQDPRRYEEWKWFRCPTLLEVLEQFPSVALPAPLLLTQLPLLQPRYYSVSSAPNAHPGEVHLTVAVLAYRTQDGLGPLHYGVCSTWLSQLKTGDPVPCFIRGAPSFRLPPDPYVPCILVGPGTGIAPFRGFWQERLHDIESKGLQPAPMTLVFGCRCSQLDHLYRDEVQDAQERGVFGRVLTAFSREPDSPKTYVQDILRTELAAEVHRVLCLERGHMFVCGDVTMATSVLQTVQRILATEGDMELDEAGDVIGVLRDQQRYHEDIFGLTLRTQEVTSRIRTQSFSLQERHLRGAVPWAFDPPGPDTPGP
Kind of assay: Inhibition of bovine recombinant eNOS overexpressed in Escherichia coli using L-arginine as substrate assessed as formation of NO-hemoglobin complex measured up to 180 seconds by hemoglobin capture assay.

Assay [3] has as its target Nitric oxide synthase 1 (Rattus norvegicus, UniProt P29476). The assay can be described thus: Inhibition of rat recombinant nNOS overexpressed in Escherichia coli using L-arginine as substrate assessed as formation of NO-hemoglobin complex measured up to 180 seconds by hemoglobin capture assay.

By Ki is commonly meant a measure of affinity in units of concentration, obtained from inhibition or displacement.

Chain of Nitric oxide synthase 1 (P29476 whole entry): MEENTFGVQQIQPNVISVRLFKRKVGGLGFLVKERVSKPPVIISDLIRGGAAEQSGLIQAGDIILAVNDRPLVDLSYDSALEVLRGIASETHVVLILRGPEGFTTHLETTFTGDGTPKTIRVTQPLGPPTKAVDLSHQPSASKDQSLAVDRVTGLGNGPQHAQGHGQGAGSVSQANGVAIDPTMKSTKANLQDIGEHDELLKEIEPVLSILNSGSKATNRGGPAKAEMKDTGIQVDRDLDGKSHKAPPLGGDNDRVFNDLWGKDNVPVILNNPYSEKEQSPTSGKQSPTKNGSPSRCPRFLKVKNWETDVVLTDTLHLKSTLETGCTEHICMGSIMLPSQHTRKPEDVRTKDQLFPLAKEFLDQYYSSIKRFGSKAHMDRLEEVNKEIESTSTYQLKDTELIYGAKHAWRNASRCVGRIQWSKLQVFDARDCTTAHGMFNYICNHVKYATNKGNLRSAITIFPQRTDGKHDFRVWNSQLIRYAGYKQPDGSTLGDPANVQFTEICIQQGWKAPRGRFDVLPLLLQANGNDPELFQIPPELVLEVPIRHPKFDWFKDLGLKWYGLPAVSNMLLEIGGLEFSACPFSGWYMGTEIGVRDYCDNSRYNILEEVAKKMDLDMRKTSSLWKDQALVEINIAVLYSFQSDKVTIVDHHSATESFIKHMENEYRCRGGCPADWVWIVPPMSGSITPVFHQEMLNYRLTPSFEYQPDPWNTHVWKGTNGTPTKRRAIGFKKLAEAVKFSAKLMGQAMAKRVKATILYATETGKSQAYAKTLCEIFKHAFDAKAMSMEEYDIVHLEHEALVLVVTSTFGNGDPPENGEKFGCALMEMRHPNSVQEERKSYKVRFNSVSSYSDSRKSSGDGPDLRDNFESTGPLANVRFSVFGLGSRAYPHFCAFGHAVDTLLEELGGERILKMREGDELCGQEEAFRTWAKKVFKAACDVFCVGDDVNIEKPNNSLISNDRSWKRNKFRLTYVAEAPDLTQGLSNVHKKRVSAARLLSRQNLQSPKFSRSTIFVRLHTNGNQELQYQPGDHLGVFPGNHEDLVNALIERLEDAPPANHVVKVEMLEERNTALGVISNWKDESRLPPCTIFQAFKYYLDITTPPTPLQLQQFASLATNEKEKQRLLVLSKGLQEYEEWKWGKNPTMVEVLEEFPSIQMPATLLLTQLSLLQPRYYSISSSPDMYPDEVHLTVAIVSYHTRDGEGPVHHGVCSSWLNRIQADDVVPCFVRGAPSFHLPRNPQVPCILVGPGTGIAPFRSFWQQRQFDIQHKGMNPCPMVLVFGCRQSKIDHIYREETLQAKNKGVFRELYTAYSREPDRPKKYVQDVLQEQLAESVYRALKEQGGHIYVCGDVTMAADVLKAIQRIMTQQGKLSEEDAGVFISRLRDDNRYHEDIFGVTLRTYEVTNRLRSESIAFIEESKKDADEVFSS

As to `Cc1cc(N)nc(COC[C@H]2C[C@H](OCc3cc(C)cc(N)n3)CN2)c1`, the values for the Ki in assay [1], in assay [2] and in assay [3] were 2.87 µM, 6.73 µM and 0.0097 µM, respectively.
